Measured values as given in the supplement of paper PMC13380429.

Assays:
[1] = tested on: A549-ACE2 infected with SARS-CoV-2; test: cell count relative to DMSO; higher = less toxic; details: 24 h
[2] = tested on: Caco-2; test: cell viability relative to DMSO; higher = less toxic; details: 72 h
[3] = tested on: Calu-3; test: as above; details: 72 h
[4] = tested on: HepG2; test: as above; details: 72 h
[5] = tested on: U2OS; test: as above; details: 72 h
[6] = tested on: Vero E6; test: as above; details: 72 h
[7] = tested on: A549-ACE2 infected with SARS-CoV-2; test: SARS-CoV-2 infection rate relative to DMSO; higher = more infection; details: 24 h
[8] = tested on: A549-ACE2; test: phospholipidosis EC50; higher = less potent phospholipidosis inducer
[9] = tested on: A549-ACE2; test: drug-induced phospholipidosis relative to tamoxifen; higher = more phospholipidosis
[10] = tested on: A549-ACE2 infected with SARS-CoV-2; test: morphology score (similarity to uninfected cells); higher = more like uninfected cells; details: 24 h
[11] = tested on: Caco-2; test: relative viability EC50 (midpoint between 100% and the lowest measured viability); higher = less toxic; details: 72 h
[12] = tested on: Calu-3; test: as above; details: 72 h
[13] = tested on: HepG2; test: as above; details: 72 h
[14] = tested on: U2OS; test: as above; details: 72 h
[15] = tested on: Caco-2; test: drug sensitivity score (DSS) for viability; higher = more toxic; extreme values may be limits of the assay; details: 72 h
[16] = tested on: Calu-3; test: as above; details: 72 h
[17] = tested on: HepG2; test: as above; details: 72 h
[18] = tested on: U2OS; test: as above; details: 72 h
[19] = tested on: Vero E6; test: as above; details: 72 h
[20] = tested on: Vero E6; test: relative viability EC50 (midpoint between 100% and the lowest measured viability); higher = less toxic; details: 72 h

**Q.** Which cell count ([1]; 0.1 µM) does the source give for `Cc1cc(Nc2ccc(NC(=O)c3ccc(Nc4ccnc5ccccc45)cc3)cc2)nc(N)n1` [SGI-1027] here?
**A.** Its cell count is 106%.

**Q.** And the cell count ([1]; 0.3 µM)?
**A.** The cell count was 95%.

**Q.** What about the cell count ([1]; 1 µM) of the same molecule?
**A.** The cell count was 106%.

**Q.** What about the cell count ([1]; 3 µM) of the same molecule?
**A.** Its cell count is 34%.

**Q.** And the cell viability ([2]; 1 nM)?
**A.** The cell viability was 103%.

**Q.** And the cell viability ([2]; 10 nM)?
**A.** The cell viability was 114%.

**Q.** And the cell viability ([2]; 100 nM)?
**A.** Its cell viability is 103%.

**Q.** What about the cell viability ([2]; 1000 nM) of the same molecule?
**A.** Its cell viability is 99.4%.

**Q.** And the cell viability ([2]; 10000 nM)?
**A.** The cell viability was 13.1%.

**Q.** And the cell viability ([3]; 1 nM)?
**A.** The cell viability was 106%.

**Q.** And the cell viability ([3]; 10 nM)?
**A.** The cell viability was 109%.

**Q.** What about the cell viability ([3]; 100 nM) of the same molecule?
**A.** The cell viability was 112%.

**Q.** What about the cell viability ([3]; 1000 nM) of the same molecule?
**A.** The cell viability was 106%.

**Q.** What about the cell viability ([3]; 10000 nM) of the same molecule?
**A.** Its cell viability is 2.8%.

**Q.** What about the cell viability ([4]; 1 nM) of the same molecule?
**A.** Its cell viability is 110%.

**Q.** What about the cell viability ([4]; 10 nM) of the same molecule?
**A.** Its cell viability is 108%.

**Q.** And the cell viability ([4]; 100 nM)?
**A.** Its cell viability is 104%.

**Q.** And the cell viability ([4]; 1000 nM)?
**A.** The cell viability was 39.5%.

**Q.** And the cell viability ([4]; 10000 nM)?
**A.** Its cell viability is -0.3%.

**Q.** What about the cell viability ([5]; 1 nM) of the same molecule?
**A.** Its cell viability is 98.1%.

**Q.** What about the cell viability ([5]; 10 nM) of the same molecule?
**A.** Its cell viability is 104%.

**Q.** What about the cell viability ([5]; 100 nM) of the same molecule?
**A.** Its cell viability is 103%.

**Q.** And the cell viability ([5]; 1000 nM)?
**A.** Its cell viability is 104%.

**Q.** And the cell viability ([5]; 10000 nM)?
**A.** The cell viability was 1%.

**Q.** And the cell viability ([6]; 1 nM)?
**A.** Its cell viability is 96.9%.

**Q.** And the cell viability ([6]; 10 nM)?
**A.** The cell viability was 99%.

**Q.** And the cell viability ([6]; 100 nM)?
**A.** The cell viability was 94.7%.

**Q.** And the cell viability ([6]; 1000 nM)?
**A.** The cell viability was 96.6%.

**Q.** What about the cell viability ([6]; 10000 nM) of the same molecule?
**A.** Its cell viability is 63.9%.

**Q.** And the SARS-CoV-2 infection rate ([7]; 0.1 µM)?
**A.** Its SARS-CoV-2 infection rate is 91%.

**Q.** And the SARS-CoV-2 infection rate ([7]; 0.3 µM)?
**A.** The SARS-CoV-2 infection rate was 101%.

**Q.** What about the SARS-CoV-2 infection rate ([7]; 1 µM) of the same molecule?
**A.** Its SARS-CoV-2 infection rate is 59%.

**Q.** And the SARS-CoV-2 infection rate ([7]; 3 µM)?
**A.** Its SARS-CoV-2 infection rate is 24%.

**Q.** What about the “phospholipidosis EC50” value ([8]; 24 h) of the same molecule?
**A.** Its value is 2.95 µM.

**Q.** What about the “phospholipidosis EC50” value ([8]; 48 h) of the same molecule?
**A.** The value was 3.26 µM.

**Q.** And the “phospholipidosis EC50” value ([8]; 72 h)?
**A.** The value was 3.61 µM.

**Q.** What about the drug-induced phospholipidosis ([9]; 0.3 µM, 24 h) of the same molecule?
**A.** Its drug-induced phospholipidosis is 6.15%.

**Q.** And the drug-induced phospholipidosis ([9]; 0.3 µM, 48 h)?
**A.** Its drug-induced phospholipidosis is 5.31%.

**Q.** And the drug-induced phospholipidosis ([9]; 0.3 µM, 72 h)?
**A.** The drug-induced phospholipidosis was 4.09%.

**Q.** What about the drug-induced phospholipidosis ([9]; 0.833333 µM, 24 h) of the same molecule?
**A.** Its drug-induced phospholipidosis is 4.67%.

**Q.** What about the drug-induced phospholipidosis ([9]; 0.833333 µM, 48 h) of the same molecule?
**A.** Its drug-induced phospholipidosis is 4.66%.

**Q.** And the drug-induced phospholipidosis ([9]; 0.833333 µM, 72 h)?
**A.** Its drug-induced phospholipidosis is 2.03%.

**Q.** And the drug-induced phospholipidosis ([9]; 3.33333 µM, 24 h)?
**A.** The drug-induced phospholipidosis was 40.2%.

**Q.** What about the drug-induced phospholipidosis ([9]; 3.33333 µM, 48 h) of the same molecule?
**A.** The drug-induced phospholipidosis was 44.4%.

**Q.** What about the drug-induced phospholipidosis ([9]; 3.33333 µM, 72 h) of the same molecule?
**A.** The drug-induced phospholipidosis was 32.5%.

**Q.** And the drug-induced phospholipidosis ([9]; 6.66667 µM, 24 h)?
**A.** Its drug-induced phospholipidosis is 55.8%.

**Q.** What about the drug-induced phospholipidosis ([9]; 6.66667 µM, 48 h) of the same molecule?
**A.** Its drug-induced phospholipidosis is 77.3%.

**Q.** And the drug-induced phospholipidosis ([9]; 6.66667 µM, 72 h)?
**A.** Its drug-induced phospholipidosis is 76.8%.

**Q.** And the morphology score ([10]; 0.1 µM)?
**A.** Its morphology score is 0.25.

**Q.** What about the morphology score ([10]; 0.3 µM) of the same molecule?
**A.** The morphology score was -0.15.

**Q.** What about the morphology score ([10]; 1 µM) of the same molecule?
**A.** Its morphology score is 0.65.

**Q.** And the morphology score ([10]; 3 µM)?
**A.** Its morphology score is 0.16.

**Q.** What about the “relative viability EC50” value [11] of the same molecule?
**A.** The value was 3.12 µM.

**Q.** What about the “relative viability EC50” value [12] of the same molecule?
**A.** Its value is 3.48 µM.

**Q.** What about the “relative viability EC50” value [13] of the same molecule?
**A.** The value was 844 nM.

**Q.** What about the “relative viability EC50” value [14] of the same molecule?
**A.** The value was 3.39 µM.

**Q.** And the drug sensitivity score [15]?
**A.** Its drug sensitivity score is 4.9.

**Q.** And the drug sensitivity score [16]?
**A.** The drug sensitivity score was 5.

**Q.** And the drug sensitivity score [17]?
**A.** The drug sensitivity score was 12.6.

**Q.** What about the drug sensitivity score [18] of the same molecule?
**A.** Its drug sensitivity score is 5.2.

**Q.** What about the drug sensitivity score [19] of the same molecule?
**A.** The drug sensitivity score was 2.3.

**Q.** What does the source list for `O=[N+]([O-])c1ccccc1S(=O)(=O)NCC1CCC(CNC[C@H]2CCc3ccccc3C2)CC1` (stereo not given in full) [NTNCB]?
**A.** cell count ([1]; 0.1 µM): 101%; cell count ([1]; 0.3 µM): 99%; cell count ([1]; 1 µM): 103%; cell count ([1]; 3 µM): 119%; cell viability ([2]; 1 nM): 93.7%; cell viability ([2]; 10 nM): 95.2%; cell viability ([2]; 100 nM): 98.8%; cell viability ([2]; 1000 nM): 86.6%; cell viability ([2]; 10000 nM): 64.8%; cell viability ([3]; 1 nM): 104%; cell viability ([3]; 10 nM): 103%; cell viability ([3]; 100 nM): 96.6%; cell viability ([3]; 1000 nM): 105%; cell viability ([3]; 10000 nM): 15%; cell viability ([4]; 1 nM): 99.1%; cell viability ([4]; 10 nM): 96.6%; cell viability ([4]; 100 nM): 91%; cell viability ([4]; 1000 nM): 101%; cell viability ([4]; 10000 nM): 57.1%; cell viability ([5]; 1 nM): 96.2%; cell viability ([5]; 10 nM): 93%; cell viability ([5]; 100 nM): 99.6%; cell viability ([5]; 1000 nM): 94.9%; cell viability ([5]; 10000 nM): 72.5%; cell viability ([6]; 1 nM): 94.9%; cell viability ([6]; 10 nM): 95.3%; cell viability ([6]; 100 nM): 89.8%; cell viability ([6]; 1000 nM): 94.5%; cell viability ([6]; 10000 nM): 79.2%; SARS-CoV-2 infection rate ([7]; 0.1 µM): 90%; SARS-CoV-2 infection rate ([7]; 0.3 µM): 102%; SARS-CoV-2 infection rate ([7]; 1 µM): 84%; SARS-CoV-2 infection rate ([7]; 3 µM): 36%; phospholipidosis EC50 ([8]; 24 h): 1.46 µM; phospholipidosis EC50 ([8]; 48 h): 3.21 µM; phospholipidosis EC50 ([8]; 72 h): 5.01 µM; drug-induced phospholipidosis ([9]; 0.3 µM, 24 h): 2.25%; drug-induced phospholipidosis ([9]; 0.3 µM, 48 h): 4.73%; drug-induced phospholipidosis ([9]; 0.3 µM, 72 h): 6.41%; drug-induced phospholipidosis ([9]; 0.833333 µM, 24 h): 13.4%; drug-induced phospholipidosis ([9]; 0.833333 µM, 48 h): 11.2%; drug-induced phospholipidosis ([9]; 0.833333 µM, 72 h): 10.5%; drug-induced phospholipidosis ([9]; 3.33333 µM, 24 h): 66.1%; drug-induced phospholipidosis ([9]; 3.33333 µM, 48 h): 54.3%; drug-induced phospholipidosis ([9]; 3.33333 µM, 72 h): 45.9%; drug-induced phospholipidosis ([9]; 6.66667 µM, 24 h): 101%; drug-induced phospholipidosis ([9]; 6.66667 µM, 48 h): 93.7%; drug-induced phospholipidosis ([9]; 6.66667 µM, 72 h): 102%; drug-induced phospholipidosis ([9]; 10 µM, 24 h): 91.2%; drug-induced phospholipidosis ([9]; 10 µM, 48 h): 117%; drug-induced phospholipidosis ([9]; 10 µM, 72 h): 126%; drug-induced phospholipidosis ([9]; 30 µM, 24 h): 45.6%; drug-induced phospholipidosis ([9]; 30 µM, 48 h): 42.7%; morphology score ([10]; 0.1 µM): 0.29; morphology score ([10]; 0.3 µM): -0.23; morphology score ([10]; 1 µM): 0.28; morphology score ([10]; 3 µM): 0.73; relative viability EC50 [12]: 3.49 µM; relative viability EC50 [20]: > 10 µM; drug sensitivity score [15]: 3.3; drug sensitivity score [16]: 4.3; drug sensitivity score [17]: 2.1; drug sensitivity score [18]: 1.9; drug sensitivity score [19]: 0.9
